Series [1] concerns volunteers. The series is described as follows: Oral administration of ex-vivo synthesized J-Factor to 11 volunteers, physical changes observed. Particulars: 0.5 mg per 10 days (=1.5 mg/month), observed in each volunteer. The method, then: (§1) In one of the embodiment of the present invention L-arginine was chemically converted into J-Factor ex-vivo. Thus converted/synthetic produced ex-vivo J-Factor was orally administrated to a small group of 11 volunteers. Each volunteers were given 0.5 mg per 10 days (=1.5 mg/month) and photographs were taken in each case at the beginning and end of the trial to record the changes in their faces and heads.
These changes indicate that ex-vivo synthesized J-Factor functioned like GH and autocrine-paracrine IGF-1 and also stimulated IGF-1 production.

The subject of series [2] is volunteers. Kind of series: Comparison of synthetic J-Factor and biosynthetic GH: complications, diabetogenicity, antigenicity. Type of series: in vivo. Here is the method:
as §1
In fact all of the above mentioned changes help in preventing or limiting the aging signs. The advantage of using ex-vivo synthesized J-Factor of the present invention when compared to biosynthetic GH is shown in the comparative table below: […]

In series [3] the test system is volunteers. Particulars: biosynthetic GH, intra muscular administration, 3 time a week; stated as common knowledge; cited from earlier work.
The mark [4] stands for this setting: comparative table, oral administration 3 times a month, no test described.

Like-named read-outs stand apart in the source and are kept apart here.

For `NC(N)=NCCC[C@H](N)C(=O)O` [J-Factor, L-2-amino-5-diaminomethyleneamino-pentanoic acid], in the series with volunteers [1], the “Eye's central vision” value is “Improvement in eye's central vision”, the “Fatty tissue e.g. in abdomen” value is “A decrease in fatty tissue”, the Hair growth entry was “Hair growth” and the Muscular hypertrophy entry is given as “Muscular hypertrophy”. Moreover, the “Tone and color of facial skin” value in the series with volunteers [1] is “Improved tone and color of facial skin”. Besides, in the series on volunteers [2] (11 volunteers, oral administration, 3 times a month), the “Complications (Joint swelling, Carpal tunnel syndrome, Joint pain)” value is given as “showed no complications such as Joint”. Moreover, in the series with volunteers [2] (setting [4]), the Antigenicity entry is recorded as “Non-antigenic” and the Diabetogenicity result was “Non-diabetogenic”.
“Biosynthetic GH: biosynthetic Growth Hormone, comparator in the table”: in the series with volunteers [3], the Antigenicity entry is recorded as “Antigenic”, the Complications entry is given as “Joint swelling Carpal tunnel” and the Diabetogenicity entry is “Diabetogenic”.

The values above are taken from patent publication US20100121105A1, “Composition and Method of synthesizing a biomolecule and its therapeutics applications” (priority 2009, published 2010).
